In patent US20260070929A1, “METHODS AND COMPOSITIONS FOR MODULATING KRAS(G12D)” (Ranok Therapeutics (Hangzhou) Co. LTD., priority 2022, published 2026):

Key:
[1] = molecular target: T1, KRAS(G12D)/SOS1 (Homo sapiens, UniProt P01116, G12D); test: KRAS(G12D)/SOS1 homogeneous time-resolved fluorescence (HTRF) assay; format: binding; conditions: absence of GTP; 4° C., 3 hr
T1 construct: purchased Cisbio 63ADK000CB17PEH
Summary of the method: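 HTRF kit assay of compound-blocked KRAS(G12D)–SOS1 interaction, run without GTP. Compounds were tested as 3-fold dilutions from 20 µM to 1.02 nM and incubated with the reaction components for 3 hr at 4 °C, sealed. IC50 was taken as the concentration giving 50% of maximal inhibition.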

[2] = system: AGS gastric carcinoma cells [heterozygous G12D]; test: Cancer cell line proliferation (CellTiter-Glo), AGS; format: cell-based; conditions: Homo sapiens, 72 hr treatment, read-out: AGS CTG (EC50)
Summary of the method: (§1)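 Luminescent ATP read-out (CellTiter-Glo) after 72 hr drug exposure gives the EC50. Test compounds were prepared as 3-fold serial dilutions between 20 μM and 1.02 nM, with 0.5% DMSO final per well.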

[3] = system: ASPC1 pancreatic adenocarcinoma cells [homozygous G12D]; test: Cancer cell line proliferation (CellTiter-Glo), ASPC1; format: cell-based; conditions: Homo sapiens, ASPC1, 72 h, 72 hr treatment, read-out: ASPC-1 CTG (EC50)
Summary of the method: as §1

[4] = system: SW1990 pancreatic adenocarcinoma cells [homozygous G12D]; test: Cancer cell line proliferation (CellTiter-Glo), SW1990; format: cell-based; conditions: Homo sapiens, 72 hr treatment, read-out: SW1990 CTG (EC50)
Experimental: The following cancer cell lines were employed: AGS gastric carcinoma [heterozygous G12D](ATCC, CRL-1739); A-427 lung carcinoma [heterozygous G12D](ATCC, HTB-53); ASPC1 pancreatic adenocarcinoma [homozygous G12D](ATCC, CRL-1682) and SW1990 pancreatic adenocarcinoma [homozygous G12D](ATCC CRL-2172). Cell lines were cultured essentially according to ATCC recommendations.
AGS, A-427, ASPC1, SW1990, and GP2D cells were plated in 96-well tissue culture plates at 4,000 cells/well and incubated at 37° C./5% CO2 for 72 hr in 100 μl of media. 3-fold serial dilutions of each test compound were prepared ranging from 20 μM to 1.02 nM. Each cell line was then treated with test compounds at various concentrations with a final concentration of 0.5% DMSO/well, and then incubated at 37° C./5% CO2 for 72 hr. 100 µl of CellTiter-Glo® Reagent (Promega Corporation, Madison, WI) was added to each well and processed according manufacturer's protocol. Results were analyzed and EC50 values were calculated in GraphPad 7 software.

[5] = system: A-427 lung carcinoma cells [heterozygous G12D]; test: Cancer cell line proliferation (CellTiter-Glo), A-427; format: cell-based; conditions: Homo sapiens, A-427 cells, 72 hr treatment, read-out: A427 CTG (EC50)
Summary of the method: as §1

T1 sequence (P01116 1-188 isoform P01116-2 G12D): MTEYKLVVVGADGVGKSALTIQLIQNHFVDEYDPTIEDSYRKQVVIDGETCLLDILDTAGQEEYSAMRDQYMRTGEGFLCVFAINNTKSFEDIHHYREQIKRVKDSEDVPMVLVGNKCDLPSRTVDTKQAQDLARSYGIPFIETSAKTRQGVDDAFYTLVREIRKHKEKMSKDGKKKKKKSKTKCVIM

CC(C)c1cc(C(=O)N2Cc3ccc(CN4CCN([C@H]5C[C@@H](COc6nc(N7CC8CCC(C7)N8)c7cnc(-c8cc(O)cc9ccccc89)c(F)c7n6)N(C)C5)CC4)cc3C2)c(O)cc1O [Compound 25]
IC50 [1]: < 100 nM
EC50 [2]: < 100 nM
EC50 [3]: > 1000 nM
EC50 [4]: < 100 nM
EC50 [5]: 100 to 1000 nM

CC(C)c1cc(C(=O)N2Cc3ccc(CN4CCN([C@H]5C[C@@H](COc6nc(N7CC8CCC(C7)N8)c7cnc(-c8cccc9ccccc89)c(F)c7n6)N(C)C5)CC4)cc3C2)c(O)cc1O [Compound 35]
IC50 [1]: > 1000 nM
EC50 [2]: 100 to 1000 nM
EC50 [3]: 100 to 1000 nM
EC50 [4]: 100 to 1000 nM
EC50 [5]: 100 to 1000 nM

C#Cc1cccc2cccc(-c3ncc4c(N5CC6CCC(C5)N6)nc(OCC5(CN6CCN(Cc7ccc(-n8c(C(=O)NCC(F)(F)F)nnc8-c8cc(C(C)C)c(O)cc8O)cc7)CC6)CC5)nc4c3F)c12 [Compound 54]
IC50 [1]: < 100 nM
EC50 [2]: < 100 nM
EC50 [3]: 100 to 1000 nM
EC50 [4]: < 100 nM
EC50 [5]: 100 to 1000 nM

C#Cc1cccc2cccc(-c3ncc4c(N5CC6CCC(C5)N6)nc(OCC5(CN6CCN(Cc7ccc(-n8c(C(=O)NC(C)C(F)(F)F)nnc8-c8cc(C(C)C)c(O)cc8O)cc7)CC6)CC5)nc4c3F)c12 (stereo not shown) [Compound 55]
IC50 [1]: 100 to 1000 nM
EC50 [2]: 100 to 1000 nM
EC50 [3]: 100 to 1000 nM
EC50 [4]: 100 to 1000 nM
EC50 [5]: 100 to 1000 nM

CCNC(=O)c1nnc(-c2cc(C(C)C)c(O)cc2O)n1-c1ccc(CN2CCC(C(=O)N3CCN([C@H]4C[C@@H](COc5nc(N6CC7CCC(C6)N7)c6cnc(-c7cccc(C)c7C)c(F)c6n5)N(C)C4)CC3)CC2)cc1 [Compound 56]
IC50 [1]: > 1000 nM
EC50 [2]: < 100 nM
EC50 [3]: 100 to 1000 nM
EC50 [4]: < 100 nM
EC50 [5]: 100 to 1000 nM

CC(C)c1cc(C(=O)N2Cc3ccc(CN4CCN([C@H]5C[C@@H](COc6nc(N7CC8CCC(C7)N8)c7cnc(-c8ccccc8C(F)(F)F)c(F)c7n6)N(C)C5)CC4)cc3C2)c(O)cc1O [Compound 58]
IC50 [1]: > 1000 nM
EC50 [2]: < 100 nM
EC50 [3]: 100 to 1000 nM
EC50 [4]: 100 to 1000 nM
EC50 [5]: < 100 nM

CCNC(=O)c1nnc(-c2cc(C(C)C)c(O)cc2O)n1-c1ccc(CN2CCC(CN3CCN([C@H]4C[C@@H](COc5nc(N6CC7CCC(C6)N7)c6cnc(-c7cccc(F)c7C)c(F)c6n5)N(C)C4)CC3)CC2)cc1 [Compound 83]
IC50 [1]: > 1000 nM
EC50 [2]: < 100 nM
EC50 [4]: < 100 nM
EC50 [5]: < 100 nM

COc1cccc2cccc(-c3ncc4c(N5CC6CCC(C5)N6)nc(OC[C@@H]5C[C@H](N6CCN(Cc7ccc8c(c7)CN(C(=O)c7cc(C(C)C)c(O)cc7O)C8)CC6)CN5C)nc4c3F)c12 [Compound 102]
IC50 [1]: 100 to 1000 nM
EC50 [2]: 100 to 1000 nM
EC50 [3]: 100 to 1000 nM
EC50 [4]: 100 to 1000 nM
EC50 [5]: 100 to 1000 nM

CCNC(=O)c1nnc(-c2cc(C(C)C)c(O)cc2O)n1-c1ccc(CN2CCN([C@H]3C[C@@H](COc4nc(N5CC6CCC(C5)N6)c5cnc(-c6cccc7cccc(OC)c67)c(F)c5n4)N(C)C3)CC2)cc1 [Compound 103]
IC50 [1]: > 1000 nM
EC50 [2]: < 100 nM
EC50 [3]: 100 to 1000 nM
EC50 [4]: 100 to 1000 nM
EC50 [5]: 100 to 1000 nM

Cc1cccc2cccc(-c3ncc4c(N5CC6CCC(C5)N6)nc(OC[C@@H]5CC[C@H](CN6CCN(Cc7ccc(-n8c(C(=O)NC(C)C(F)(F)F)nnc8-c8cc(C(C)C)c(O)cc8O)cc7)CC6)N5C)nc4c3F)c12 (stereo partly shown) [Compound 107]
IC50 [1]: 100 to 1000 nM
EC50 [2]: 100 to 1000 nM
EC50 [3]: 100 to 1000 nM
EC50 [4]: 100 to 1000 nM
EC50 [5]: 100 to 1000 nM

C#Cc1cccc2cc(O)cc(-c3ncc4c(N5CC6CCC(C5)N6)nc(OCC5(CN6CCN(CC7CCN(Cc8ccc9c(c8)CN(C(=O)c8cc(C(C)C)c(O)cc8O)C9)CC7)CC6)CC5)nc4c3F)c12 [Compound 117]
EC50 [2]: < 100 nM
EC50 [3]: 100 to 1000 nM
EC50 [4]: < 100 nM
EC50 [5]: 100 to 1000 nM

C#Cc1cccc2cc(O)cc(-c3ncc4c(N5CC6CCC(C5)N6)nc(OCC5(CN6CCC(C(=O)N7CCN(Cc8ccc(-n9c(C(=O)NC(C)C(F)(F)F)nnc9-c9cc(C(C)C)c(O)cc9O)cc8)CC7)CC6)CC5)nc4c3F)c12 (stereo not shown) [Compound 120]
IC50 [1]: < 100 nM
EC50 [2]: < 100 nM
EC50 [3]: 100 to 1000 nM
EC50 [4]: < 100 nM
EC50 [5]: 100 to 1000 nM

C#Cc1cccc2cc(O)cc(-c3ncc4c(N5CC6CCC(C5)N6)nc(OCC5(CN6CCC(C(=O)N7CCN(C(=O)C8CCN(Cc9ccc%10c(c9)CN(C(=O)c9cc(C(C)C)c(O)cc9O)C%10)CC8)CC7)CC6)CC5)nc4c3F)c12 [Compound 121]
IC50 [1]: < 100 nM
EC50 [2]: < 100 nM
EC50 [3]: > 1000 nM
EC50 [4]: 100 to 1000 nM
EC50 [5]: > 1000 nM

C#Cc1cccc2cccc(-c3ncc4c(N5CC6CCC(C5)N6)nc(OC[C@@H]5C[C@H](CN6CCN(Cc7ccc8c(c7)CN(C(=O)c7cc(C(C)C)c(O)cc7O)C8)CC6)CN5C)nc4c3F)c12 [Compound 122]
IC50 [1]: < 100 nM
EC50 [2]: 100 to 1000 nM
EC50 [3]: 100 to 1000 nM
EC50 [4]: 100 to 1000 nM
EC50 [5]: 100 to 1000 nM

C#Cc1c(F)ccc2cc(O)cc(-c3ncc4c(N5CC6CCC(C5)N6)nc(OCC5(CN6CCN(C7CCN(Cc8ccc(-n9c(C(=O)NC(C)C(F)(F)F)nnc9-c9cc(C(C)C)c(O)cc9O)cc8)CC7)CC6)CC5)nc4c3F)c12 (stereo not shown) [Compound 160]
EC50 [2]: < 100 nM
EC50 [3]: < 100 nM
EC50 [4]: < 100 nM
EC50 [5]: < 100 nM

C#Cc1c(F)ccc2cc(O)cc(-c3ncc4c(N5CC6CCC(C5)N6)nc(OCC5(CN6CCN(CC7CN(Cc8ccc9c(c8)CN(C(=O)c8cc(C(C)C)c(O)cc8O)C9)C7)CC6)CC5)nc4c3F)c12 [Compound 164]
IC50 [1]: < 100 nM
EC50 [2]: < 100 nM
EC50 [3]: 100 to 1000 nM
EC50 [4]: < 100 nM

C#Cc1c(F)ccc2cc(O)cc(-c3ncc4c(N5CC6CCC(C5)N6)nc(OCC5(CN6CCN(CC7CN(Cc8ccc(-n9c(C(=O)NC(C)C(F)(F)F)nnc9-c9cc(C(C)C)c(O)cc9O)cc8)C7)CC6)CC5)nc4c3F)c12 (stereo not shown) [Compound 165]
IC50 [1]: < 100 nM
EC50 [2]: < 100 nM
EC50 [3]: 100 to 1000 nM
EC50 [4]: < 100 nM

C#Cc1c(F)ccc2cc(O)cc(-c3ncc4c(N5CC6CCC(C5)N6)nc(OCC5(CN6CCN(CC7CN(Cc8ccc(-n9c(C(=O)NCC(F)(F)F)nnc9-c9cc(C(C)C)c(O)cc9O)cc8)C7)CC6)CC5)nc4c3F)c12 [Compound 166]
IC50 [1]: < 100 nM
EC50 [2]: < 100 nM
EC50 [3]: < 100 nM
EC50 [4]: < 100 nM

C#Cc1c(F)ccc2cc(O)cc(-c3ncc4c(N5CC6CCC(C5)N6)nc(OCC5CN(CC6(CNc7ccc8c(c7)CN(C(=O)c7cc(C(C)C)c(O)cc7O)C8)CC6)C5)nc4c3F)c12 [Compound 194]
IC50 [1]: < 100 nM
EC50 [2]: 100 to 1000 nM
EC50 [4]: 100 to 1000 nM

C#Cc1cccc2cc(O)cc(-c3ncc4c(N5CC6CCC(C5)N6)nc(OCC5(CN6CCN(CC7CCN(Cc8ccc(-n9c(C(=O)NCC)nnc9-c9cc(C(C)C)c(O)cc9O)cc8)CC7)CC6)CC5)nc4c3F)c12 [Example 2, 4-(4-{[4-({4-[(1-{[(4-{3,8-diazabicyclo[3.2.1]octan-3-yl}-7-(8-ethynyl-3-hydroxynaphthalen-1-yl)-8-fluoropyrido[4,3-d]pyrimidin-2-yl)oxy]methyl}cyclopropyl)methyl]piperazin-1-yl}methyl)piperidin-1-yl]methyl}phenyl)-5-(2,4-dihydroxy-5-isopropylphenyl)-N-ethyl-1,2,4-triazole-3-carboxamide]
EC50 [2]: < 100 nM
EC50 [3]: < 100 nM
EC50 [4]: < 100 nM
EC50 [5]: < 100 nM
